# Measured values taken from patent US20080009478A1, “Benzazepine Derivatives and Methods of Prophylaxis or Treatment of 5Ht2c Receptor Associated Diseases” (Arena Pharmaceuticals, Inc., priority 2003, published 2008).
# Structures can show the parent of a compound that is named as a salt.
# Columns and labels:
# [1] = system: serotonin 5HT2A receptors; details: 3T3 fibroblasts expressing 5HT2A; cited from earlier work
# human 5HT2C receptor = biological target: T1, human 5HT2C receptor (Homo sapiens, UniProt P28335); test: Intracellular IP3 Accumulation Assay; type: cell-based; details: HEK293 cells transfected with human 5HT2C receptor; averages of at least two trials; read-out: 5-HT2C (IC50) IP Accumulation Assay
# T1 construct: expressed in transfected cells; host or cells: HEK293
# T1 sequence (P28335 33-458): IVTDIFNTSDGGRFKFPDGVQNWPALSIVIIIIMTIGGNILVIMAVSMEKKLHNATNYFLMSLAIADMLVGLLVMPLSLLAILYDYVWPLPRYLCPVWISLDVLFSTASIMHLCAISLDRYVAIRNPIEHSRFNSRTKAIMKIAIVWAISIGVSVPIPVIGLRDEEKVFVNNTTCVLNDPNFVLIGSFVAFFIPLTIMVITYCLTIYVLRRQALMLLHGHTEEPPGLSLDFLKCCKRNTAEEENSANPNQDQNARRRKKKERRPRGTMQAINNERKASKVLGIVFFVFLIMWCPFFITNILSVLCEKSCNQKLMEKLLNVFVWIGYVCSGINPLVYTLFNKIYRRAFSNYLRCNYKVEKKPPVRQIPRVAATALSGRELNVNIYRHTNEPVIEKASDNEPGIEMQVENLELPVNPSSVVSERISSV
# Description: Intracellular IP3 Accumulation Assay
# HEK293 cells were transfected in 15 cm sterile dishes with or without (control) 16 ug of human 5HT2C receptor cDNA [Saltzman, A. G., et al. Biochem. Biophys. Res. Commun. 181, 1469-1478 (1991)] using 25 ul of lipofectamine. Cells were then incubated for 3-4 hours at 37° C./5% CO2 and then transfection media was removed and replaced with 100 μL of DMEM. Cells were then plated onto […] sterile dishes. The next day cells were plated into 96 well PDL microtiter plates at a density of 55K/0.2 ml. Six hours latter, media was exchanged with [^3H]inositol (0.25 μCi/well) in inositol free DMEM and plates were incubated at 37° C./5% CO2 overnight. The next day, wells were aspirated and 200 μl of DMEM containing test compound, 10 μM pargyline, and 10 mM LiCl was added to appropriate wells. Plates were then incubated at 37° C./5% CO2 for three hours followed aspiration and by addition of fresh ice cold stop solution (1M KOH, 19 mM Na-borate, 3.8 mM EDTA) to each well. Plates were kept on ice for 5-10 min and the wells were neutralized by addition of 200 μL of fresh ice cold neutralization solution (7.5% HCl). Plates were then frozen until further processing is desired. The lysate was then transferred into 1.5 mL Eppendorf tubes and 1 mL of chloroform/methanol (1:2) was added/tube. […]
# [2] = system: amyloid precursor protein (APPs); details: guinea pigs, in vivo, repeat administration; cited from earlier work
compound,measurement,setting,value
"NCCc1c[nH]c2ccc(O)cc12 [Example 5-HT, 5-hydroxytryptamine]",Maximal stimulation of APPs secretion,[1],about 4 fold
"C[C@@H]1CNCCc2cc(Cc3ccccc3)c(Cl)cc21 [Example 13, (S)-7-Benzyl-8-chloro-1-methyl-2,3,4,5-tetrahydro-1H-benzo[d]azepine hydrochloride]",IC50,human 5HT2C receptor,30 nM
"COc1cc2c(cc1Cc1ccccc1)C(C)CNCC2 (racemic) [Example 14, (R,S)-8-Benzyl-7-methoxy-1-methyl-2,3,4,5-tetrahydro-1H-benzo[d]azepine hydrochloride]",IC50,human 5HT2C receptor,7 nM
C[C@H](N)Cc1cccc(C(F)(F)F)c1 [dexnorfenfluramine],amyloid precursor protein (APPs) secretion,[2],stimulated
same,levels of Aβ production,[2],reducing
